Measured values from patent US11844801B2, “Oral compositions of MK2 pathway inhibitor for treatment of immune conditions” (priority 2020, dated 2023).

Tests used:
TNFα = test: LPS stimulated TNFα in differentiated U937 cells (hPBMC), ELISA; format: cell-based; conditions: Homo sapiens, U-937; LPS 0.1 μg/mL, 4 hours
Description: (§1) Therefore, inhibition of the p38 MAP Kinase pathway will lower the inflammatory response by decreasing biosynthesis of pro-inflammatory cytokines. […] The U937 human pre-monocytic cell line was obtained from the American Type Culture Collection (Rockville, MD). These cells were differentiated to a monocytic/macrophage phenotype as described by Burnette (Burnette et al, (2009). […] Differentiated U937 cells (human peripheral blood mononuclear cells (hPBMC)) were seeded into 96-well tissue culture plates (200,000 cells/well) in complete media. […] Culture media was then collected for determination of TNFα, IL-6 or IL-10 levels by ELISA. Cytokine concentrations were extrapolated from recombinant protein standard curves using a four-parameter logistic model and solving for IC50 after iterating to the best least-squares fit.

IL-1β = test: LPS stimulated IL-1β in differentiated U937 cells (hPBMC), ELISA; format: cell-based; conditions: Homo sapiens, U-937; LPS 0.1 μg/mL, 4 hours
IL-6 = test: LPS stimulated IL-6 in differentiated U937 cells (hPBMC), ELISA; format: cell-based; conditions: Homo sapiens, U-937; LPS 0.1 μg/mL, 4 hours
Description: as §1

[1] = Crystal form screen of Compound (P)-I; format: physicochemical; conditions: for Crystal form obtained, EV: evaporation; for Crystal form obtained, RC: rapid cooling 40 to −20° C.; for Crystal form obtained, TC: temperature-cycled slurry 5-40° C.
Description: Water-containing solvents with a variety of water activities (aw)^1 were also included to probe for the formation of hydrates. Temperatures ranging between 40° C. to −20° C.
The screening studies were comprised of the following crystallization modes: • Temperature-cycled ripening of API slurries between 5-40° C. for four days (TC) • Rapid cooling clarified saturated solutions from 40 to −20° C. and holding at −20° C. for three days (RC) • Slow evaporation of clarified solutions at RT over 14 days.

[2] = MTX 7.5 mg single oral dose alone, fasted
[3] = 2-Methoxyethanol:Isopropyl ether (20:80)
[4] = 2-propanol:Water (90:10), water activity 0.65
[5] = 2-propanol:Water (95:5), water activity 0.55
[6] = Acetone:Water (20:80), water activity 0.96
[7] = Acetone:Water (80:20), water activity 0.77
[8] = Acetonitrile:Water (90:10), water activity 0.76
[9] = Methanol:Water (90:10), water activity 0.33
[10] = Methanol:Water (95:5), water activity 0.20
[11] = Tetrahydrofuran::Water (20:80), water activity 0.82

Cc1cnc(-c2ccnc(C(C)(C)O)n2)cc1-n1c(C)cc(OCc2ncc(F)cc2F)c(Cl)c1=O (atropisomer, axis not shown; (M)) [(M)-I, (M)-3-chloro-4-((3,5-difluoropyridin-2-yl)methoxy)-2′-(2-(2-hydroxypropan-2-yl)pyrimidin-4-yl)-5′,6-dimethyl-2H-[1,4′-bipyridin]-2-one]
> 10000 µM: IC50 (TNFα) | IC50 (IL-1β) | IC50 (IL-6)

Cc1cnc(-c2ccnc(C(C)(C)O)n2)cc1-n1c(C)cc(OCc2ncc(F)cc2F)c(Cl)c1=O (single isomer, unassigned) [(P)-I, (P)-3-chloro-4-((3,5-difluoropyridin-2-yl)methoxy)-2′-(2-(2-hydroxypropan-2-yl)pyrimidin-4-yl)-5′,6-dimethyl-2H-[1,4′-bipyridin]-2-one]
Form A: Crystal form obtained, EV ([1]; 1,4-Dioxane) | Crystal form obtained, EV ([1]; 1,4-Dioxane:Water (90:10), water activity 0.70) | Crystal form obtained, EV ([1]; 1-Propanol) | Crystal form obtained, EV ([1]; 2-Butanone) | Crystal form obtained, EV [1, 3] | Crystal form obtained, EV ([1]; 2-Propanol) | Crystal form obtained, EV [1, 4] | Crystal form obtained, EV [1, 5] | Crystal form obtained, EV ([1]; 4-Methyl-2-pentanone) | Crystal form obtained, EV ([1]; Acetone) | Crystal form obtained, EV [1, 6] | Crystal form obtained, EV [1, 7] | Crystal form obtained, EV ([1]; Acetone:Water (90:10), water activity 0.70) | Crystal form obtained, EV ([1]; Acetonitrile) | Crystal form obtained, EV [1, 8] | Crystal form obtained, EV ([1]; DMSO:t-butyl methyl ether (20:80)) | Crystal form obtained, EV ([1]; Dichloromethane) | Crystal form obtained, EV ([1]; Dimethyl carbonate) | Crystal form obtained, EV ([1]; Ethanol) | Crystal form obtained, EV ([1]; Ethyl acetate) | Crystal form obtained, EV ([1]; Isopropyl acetate) | Crystal form obtained, EV ([1]; Methanol) | Crystal form obtained, EV [1, 9] | Crystal form obtained, EV [1, 10] | Crystal form obtained, EV ([1]; Nitromethane) | Crystal form obtained, EV ([1]; Tetrahydrofuran) | Crystal form obtained, EV [1, 11] | Crystal form obtained, EV ([1]; Tetrahydrofuran:Water (90:10), water activity 0.83) | Crystal form obtained, EV ([1]; Toluene) | Crystal form obtained, RC [1, 4] | Crystal form obtained, RC [1, 7] | Crystal form obtained, RC ([1]; Acetonitrile) | Crystal form obtained, RC [1, 9] | Crystal form obtained, RC ([1]; Nitromethane) | Crystal form obtained, TC ([1]; 1-Butanol) | Crystal form obtained, TC ([1]; 1-Methoxy-2-propanol:Isopropyl ether (20:80)) | Crystal form obtained, TC [1, 3] | Crystal form obtained, TC ([1]; 2-Methoxyethyl ether:Heptane (20:80)) | Crystal form obtained, TC ([1]; 2-Propanol) | Crystal form obtained, TC [1, 5] | Crystal form obtained, TC ([1]; 4-Methyl-2-pentanone) | Crystal form obtained, TC ([1]; 4-Methyl-2-pentanone:heptane (20:80)) | Crystal form obtained, TC [1, 6] | Crystal form obtained, TC ([1]; Acetonitrile) | Crystal form obtained, TC [1, 8] | Crystal form obtained, TC ([1]; Acetonitrile:Water (95:5), water activity 0.94) | Crystal form obtained, TC ([1]; Acetonitrile:isopropyl ethyl ether (20:80)) | Crystal form obtained, TC ([1]; Chlorobenzene:Cyclohexane (20:80)) | Crystal form obtained, TC ([1]; Cyclohexane) | Crystal form obtained, TC ([1]; Dimethyl carbonate) | Crystal form obtained, TC ([1]; Ethanol:Water (20:80), water activity 0.93) | Crystal form obtained, TC ([1]; Ethyl acetate:cyclohexane (20:80)) | Crystal form obtained, TC ([1]; Heptane) | Crystal form obtained, TC ([1]; Isopropyl acetate) | Crystal form obtained, TC ([1]; Isopropyl ether) | Crystal form obtained, TC [1, 9] | Crystal form obtained, TC [1, 10] | Crystal form obtained, TC ([1]; Methyl acetate:Heptane (20:80)) | Crystal form obtained, TC ([1]; N,N-Dimethylformamide:Water (20:80), water activity 0.95) | Crystal form obtained, TC ([1]; Nitromethane) | Crystal form obtained, TC [1, 11] | Crystal form obtained, TC ([1]; Toluene) | Crystal form obtained, TC ([1]; Trifluoroethanol:Isopropyl ether (20:80)) | Crystal form obtained, TC ([1]; Water, water activity 1.00) | Crystal form obtained, TC ([1]; t-Butyl methyl ether)
0.012 µM: IC50 (IL-1β)
0.145 µM: IC50 (IL-6)
0.004 µM: IC50 (TNFα)

CN(Cc1cnc2nc(N)nc(N)c2n1)c1ccc(C(=O)N[C@@H](CCC(=O)O)C(=O)O)cc1 [MTX, Methotrexate]
562.2 (102.2) ng · h/mL: AUC0-∞ [2]
3.1 (0.7) h: t1/2 [2]
1.0 (0.5, 2.5) h: Tmax, median (min, max) [2]
163.3 (35.6) ng/mL: Cmax [2]
